Assay results published in patent US7985567B2, “Host cells and methods for producing 3-methyl-2-buten-1-ol, 3-methyl-3-buten-1-ol, and 3-methyl-butan-1-ol” (The Regents of the University of California, priority 2007, dated 2011).

System: S. cerevisiae BY4741 cells
Test: In vivo reduction of 3-methyl-2-butenol or 3-methyl-3-butenol to 3-methyl-butanol by yeast
Assay type: cell-based, Saccharomyces cerevisiae
Details: 1 g/l substrate added after 48 hours, grown an additional 2 days; versus no substrate or 3-methyl-3-butenol; FIG. 3
Protocol: To test the capability of yeast to catalyze the conversion of 3-methyl-2-butenol to isopentanol, 5 ml. of YPD medium with 2% glycerol, in a 100 ml culture tube, was inoculated with an overnight culture of freshly plated S. cerevisiae BY4741 cells to achieve a final absorbance of 0.5 at 600 nm (A600). The cultures were grown at 30° C. at 200 r.p.m. After 48 hours, either 3-methyl-2-butenol or 3-methyl-3-butenol (1 g/l) was added to the culture.
Cultures were sampled after addition of 3-methyl-2-butenol or 3-methyl-3-butenol and grown for an additional 2 days. The samples were collected by pelleting 1 ml of culture, and adding 150 μl of the supernatant to 750 μl of the extraction solvent (80:20 chloroform:methanol spiked with 50 mg l^−1 of butanol internal standard). The samples were vortexed for 15 minutes and centrifuged for 2 minutes at 5000 r.c.f. 450 μl of the organic layer was removed from each sample and transferred to a clean GC vial for analysis. The GC-MS data were collected in full-scan mode (m/z 50-300) using a Tr-Wax column (0.25 mm×30 m, 0.25 μm film thickness; Thermo Electron) on a PolarisQ GC-MS with TriPlusautosampler (Thermo Electron). The carrier flow was 1.2 ml min^−1, and the inlet temperature was set to 200° C. The oven program was as follows: 40° C. […] Samples were normalized using the butanol internal standard and quantified using authentic standards.

CC(C)=CCO [3-methyl-2-butenol, 3-methyl-2-buten-1-ol]
isopentanol production by yeast grown in the presence of the alcohol substrate: significantly more isopentanol
